29 compounds from US20160083357A1, “NOVEL TETRAZOLONE DERIVATIVES” (Hoffmann-La Roche Inc., priority 2013, published 2016) can be followed below.

The target in one experiment is T1, human CB1 receptors (Homo sapiens, UniProt P21554).
T1 construct: expressed in transfected cells; host or cells: CHO cells
As to the kind of experiment: cAMP assay, human CB1. It is filed as cell-based. An outline of the steps:
(§1)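 CHO cells expressing human CB1 or CB2, preincubated in Krebs Ringer bicarbonate with 1 mM IBMX, then compound for 30 min at 30° C. cAMP quantified by time-resolved FRET (cAMP-Nano-TRF) against a cAMP standard curve; EC50 values derived.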

The next experiment concerns the target T2, human CB2 receptors (Homo sapiens, UniProt P34972).
T2 construct: expressed in transfected cells; host or cells: CHO cells
As to the kind of experiment: cAMP assay, human CB2. It is filed as cell-based. The essentials: as §1
In general terms: Cyclic AMP is a second messenger, typically raised through Gs and lowered through Gi signalling.

The mark [1] stands for this setting: functional cAMP assay, CHO cells expressing human CB1, read-out: Ec50: CB1 - hu cAMP.
Setting [2] is: functional cAMP assay, CHO cells expressing human CB2, read-out: Ec50: CB2 - hu cAMP.

Where two headings read alike, the source gives them in different places. Some results are limits rather than exact numbers.

One may read the EC50 as the concentration needed to bring the measured effect to its halfway point.

T1 sequence (P21554 whole entry): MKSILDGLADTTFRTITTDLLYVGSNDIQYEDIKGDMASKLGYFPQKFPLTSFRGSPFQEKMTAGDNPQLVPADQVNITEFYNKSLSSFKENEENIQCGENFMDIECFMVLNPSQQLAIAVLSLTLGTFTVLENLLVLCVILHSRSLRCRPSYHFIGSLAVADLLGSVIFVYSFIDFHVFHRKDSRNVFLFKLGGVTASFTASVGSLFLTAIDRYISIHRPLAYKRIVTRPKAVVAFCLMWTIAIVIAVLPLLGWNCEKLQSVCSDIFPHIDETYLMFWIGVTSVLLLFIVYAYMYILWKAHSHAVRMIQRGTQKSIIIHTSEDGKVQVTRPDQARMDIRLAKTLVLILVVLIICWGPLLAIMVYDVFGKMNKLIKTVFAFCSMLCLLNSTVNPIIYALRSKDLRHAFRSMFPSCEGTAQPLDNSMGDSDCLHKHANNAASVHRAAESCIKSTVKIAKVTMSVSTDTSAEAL
T2 sequence (P34972 whole entry): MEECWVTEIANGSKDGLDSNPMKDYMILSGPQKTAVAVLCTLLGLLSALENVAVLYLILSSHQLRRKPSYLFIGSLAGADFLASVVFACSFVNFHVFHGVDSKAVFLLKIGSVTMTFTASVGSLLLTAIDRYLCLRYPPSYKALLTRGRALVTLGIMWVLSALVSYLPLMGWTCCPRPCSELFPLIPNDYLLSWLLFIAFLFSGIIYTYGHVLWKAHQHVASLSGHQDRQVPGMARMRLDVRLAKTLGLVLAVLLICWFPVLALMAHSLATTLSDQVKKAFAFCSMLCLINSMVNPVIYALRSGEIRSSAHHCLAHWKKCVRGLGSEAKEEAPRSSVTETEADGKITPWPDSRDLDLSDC

As to `COCCNC(=O)n1nnn(-c2cccc(F)c2)c1=O` [Example 110, 4-(3-Fluoro-phenyl)-5-oxo-4,5-dihydro-tetrazole-1-carboxylic acid (2-methoxy-ethyl)-amide], the EC50 at human CB1 receptors (setting [1]) was above 10000 nM; on human CB2 receptors (setting [2]), 968 nM.

On to `CCOCCN(C)C(=O)n1nnn(-c2cccc(Cl)c2)c1=O` [Example 111, 4-(3-Chloro-phenyl)-5-oxo-4,5-dihydro-tetrazole-1-carboxylic acid (2-ethoxy-ethyl)-methyl-amide], for which the EC50 at human CB1 receptors (setting [1]) was above 10000 nM; on human CB2 receptors (setting [2]) it was 1.5 nM.

As for `CCOCCN(C)C(=O)n1nnn(-c2cccc(OC(F)(F)F)c2)c1=O` [Example 112, 5-Oxo-4-(3-trifluoromethoxy-phenyl)-4,5-dihydro-tetrazole-1-carboxylic acid (2-ethoxy-ethyl)-methyl-amide], the results for the EC50 on human CB1 receptors and at human CB2 receptors were above 10000 nM and 4.1 nM, respectively.

Turning to `CCOCCN(C)C(=O)n1nnn(-c2ccc(Cl)cc2)c1=O` [Example 113, 4-(4-Chloro-phenyl)-5-oxo-4,5-dihydro-tetrazole-1-carboxylic acid (2-ethoxy-ethyl)-methyl-amide], the EC50 was above 10000 nM on human CB1 receptors (setting [1]) and 1.4 nM on human CB2 receptors (setting [2]).

Consider `CCOC(=O)Cn1nnn(-c2cccc(Cl)c2)c1=O` [Example 114, [4-(3-Chloro-phenyl)-5-oxo-4,5-dihydro-tetrazol-1-yl]-acetic acid ethyl ester], for which the EC50 on human CB1 receptors (setting [1]) was above 10000 nM; at human CB2 receptors (setting [2]), 1990 nM.

With `O=C(Cn1nnn(-c2cccc(Cl)c2)c1=O)N1CCOCC1` [Example 115, 1-(3-Chloro-phenyl)-4-(2-morpholin-4-yl-2-oxo-ethyl)-1,4-dihydro-tetrazol-5-one], the 50% effective concentration (EC50) on human CB1 receptors (setting [1]) is above 10000 nM; on human CB2 receptors (setting [2]) it was 2020 nM.

Regarding `CC(C(=O)N1CCCC1)N1CCN(C(=O)n2nnn(-c3cccc(Cl)c3)c2=O)CC1` (stereo not shown) [Example 116, 1-(3-Chloro-phenyl)-4-[4-(1-methyl-2-oxo-2-pyrrolidin-1-yl-ethyl)-piperazine-1-carbonyl]-1,4-dihydro-tetrazol-5-one], the EC50 at human CB1 receptors (setting [1]) was above 10000 nM; at human CB2 receptors (setting [2]), 122 nM.

Take `CC(C(=O)N1CCCC1)N1CCN(C(=O)n2nnn(-c3cccc(OC(F)(F)F)c3)c2=O)CC1` (stereo not shown) [Example 117, 1-[4-(1-Methyl-2-oxo-2-pyrrolidin-1-yl-ethyl)-piperazine-1-carbonyl]-4-(3-trifluoromethoxy-phenyl)-1,4-dihydro-tetrazol-5-one]: the EC50 at human CB1 receptors (setting [1]) was above 10000 nM; at human CB2 receptors (setting [2]), 106 nM.

For `CC(C(=O)N1CCCC1)N1CCN(C(=O)n2nnn(-c3ccc(Cl)cc3)c2=O)CC1` (stereo not shown) [Example 118, 1-(4-Chloro-phenyl)-4-[4-(1-methyl-2-oxo-2-pyrrolidin-1-yl-ethyl)-piperazine-1-carbonyl]-1,4-dihydro-tetrazol-5-one], the EC50 at human CB1 receptors (setting [1]) was above 10000 nM; on human CB2 receptors (setting [2]) it was 114 nM.

Turning to `O=C(N1CCOCC1)n1nnn(-c2ccccc2C(F)(F)F)c1=O` [Example 119, 1-(morpholine-4-carbonyl)-4-[2-(trifluoromethyl)phenyl]tetrazol-5-one], the figures for the EC50 on human CB1 receptors (setting [1]) and at human CB2 receptors (setting [2]) were above 10000 nM and 386 nM, respectively.

Consider `O=C(N1CCOCC1)n1nnn(-c2cccc(C(F)(F)F)c2)c1=O` [Example 120, 1-(morpholine-4-carbonyl)-4-[3-(trifluoromethyl)phenyl]tetrazol-5-one], for which the values for the EC50 at human CB1 receptors (setting [1]) and on human CB2 receptors (setting [2]) were above 10000 nM and 9.2 nM, respectively.

With `O=C(N1CCOCC1)n1nnn(-c2ccc(C(F)(F)F)cc2)c1=O` [Example 121, 1-(morpholine-4-carbonyl)-4-[4-(trifluoromethyl)phenyl]tetrazol-5-one], the figures for the EC50 at human CB1 receptors (setting [1]) and on human CB2 receptors (setting [2]) were above 10000 nM and 16 nM, respectively.

In the case of `O=C(N1CCOCC1)n1nnn(-c2c(F)cccc2F)c1=O` [Example 122, 1-(2,6-difluorophenyl)-4-(morpholine-4-carbonyl)tetrazol-5-one], the EC50 is above 10000 nM at human CB1 receptors and 19 nM on human CB2 receptors.

For the compound `O=C(N1CCOCC1)n1nnn(-c2ccc(F)cc2F)c1=O` [Example 123, 1-(2,4-difluorophenyl)-4-(morpholine-4-carbonyl)tetrazol-5-one], the EC50 at human CB1 receptors (setting [1]) is above 10000 nM; on human CB2 receptors (setting [2]), 12 nM.

In the case of `O=C(N1CCOCC1)n1nnn(-c2cc(F)ccc2F)c1=O` [Example 124, 1-(2,5-difluorophenyl)-4-(morpholine-4-carbonyl)tetrazol-5-one], the figures for the EC50 on human CB1 receptors (setting [1]) and on human CB2 receptors (setting [2]) were above 10000 nM and 19 nM, respectively.

As for `O=C(N1CCOCC1)n1nnn(-c2ccc(F)c(F)c2)c1=O` [Example 125, 1-(3,4-difluorophenyl)-4-(morpholine-4-carbonyl)tetrazol-5-one], the EC50 at human CB1 receptors (setting [1]) was above 10000 nM; at human CB2 receptors (setting [2]) it was 7 nM.

Consider `O=C(N1CCOCC1)n1nnn(-c2cc(F)cc(F)c2)c1=O` [Example 126, 1-(3,5-difluorophenyl)-4-(morpholine-4-carbonyl)tetrazol-5-one], for which the EC50 on human CB1 receptors (setting [1]) is above 10000 nM; on human CB2 receptors (setting [2]) it was 13 nM.

For the compound `Cc1cccc(-n2nnn(C(=O)N3CCOCC3)c2=O)c1` [Example 127, 1-(3-methylphenyl)-4-(morpholine-4-carbonyl)tetrazol-5-one], the EC50 was above 10000 nM at human CB1 receptors (setting [1]) and 8.4 nM on human CB2 receptors (setting [2]).

For the compound `Cc1ccc(-n2nnn(C(=O)N3CCOCC3)c2=O)cc1` [Example 128, 1-(4-methylphenyl)-4-(morpholine-4-carbonyl)tetrazol-5-one], the EC50 at human CB1 receptors (setting [1]) is above 10000 nM; at human CB2 receptors (setting [2]), 6.6 nM.

For the compound `COc1cccc(-n2nnn(C(=O)N3CCOCC3)c2=O)c1` [Example 129, 1-(3-methoxyphenyl)-4-(morpholine-4-carbonyl)tetrazol-5-one], the EC50 was above 10000 nM on human CB1 receptors (setting [1]) and 9.1 nM on human CB2 receptors (setting [2]).

As to `COc1ccc(-n2nnn(C(=O)N3CCOCC3)c2=O)cc1` [Example 130, 1-(4-methoxyphenyl)-4-(morpholine-4-carbonyl)tetrazol-5-one], the concentration giving a half-maximal response (EC50) is above 10000 nM at human CB1 receptors (setting [1]) and 6.7 nM on human CB2 receptors (setting [2]).

`O=C(N1CCOCC1)n1nnn(-c2cccc(Cl)c2Cl)c1=O` [Example 131, 1-(2,3-dichlorophenyl)-4-(morpholine-4-carbonyl)tetrazol-5-one]: the EC50 at human CB1 receptors (setting [1]) was above 10000 nM; at human CB2 receptors (setting [2]), 16 nM.

For `Cn1ccc2c(-n3nnn(C(=O)N4CCOCC4)c3=O)cccc21` [Example 132, 1-(1-methylindol-4-yl)-4-(morpholine-4-carbonyl)tetrazol-5-one], the EC50 on human CB1 receptors (setting [1]) is above 10000 nM; on human CB2 receptors (setting [2]), 7.6 nM.

With `Cn1ccc2cc(-n3nnn(C(=O)N4CCOCC4)c3=O)ccc21` [Example 133, 1-(1-methylindol-5-yl)-4-(morpholine-4-carbonyl)tetrazol-5-one], the EC50 at human CB1 receptors (setting [1]) was above 10000 nM; at human CB2 receptors (setting [2]), 18 nM.

As to `Cn1ccc2ccc(-n3nnn(C(=O)N4CCOCC4)c3=O)cc21` [Example 134, 1-(1-methylindol-6-yl)-4-(morpholine-4-carbonyl)tetrazol-5-one], the EC50 at human CB1 receptors (setting [1]) was above 10000 nM; at human CB2 receptors (setting [2]) it was 8 nM.

For `O=C(N1CCOCC1)n1nnn(-c2cccc(Br)c2)c1=O` [Example 135, 1-(3-bromophenyl)-4-(morpholine-4-carbonyl)tetrazol-5-one], the EC50 on human CB1 receptors (setting [1]) is above 10000 nM; on human CB2 receptors (setting [2]), 7 nM.

For `C[C@@H]1CN(C(=O)n2nnn(-c3cccc(Cl)c3)c2=O)C[C@H](C)O1` [Example 136, 1-(3-chlorophenyl)-4-[(2R,6S)-2,6-dimethylmorpholine-4-carbonyl]tetrazol-5-one], the EC50 at human CB1 receptors (setting [1]) is above 10000 nM; at human CB2 receptors (setting [2]) it was 507 nM.

For the compound `CC1CN(C(=O)n2nnn(-c3cccc(Cl)c3)c2=O)CC(C)O1` (stereo not shown) [Example 137, 1-(3-chlorophenyl)-4-(2,6-dimethylmorpholine-4-carbonyl)tetrazol-5-one], the EC50 on human CB1 receptors (setting [1]) is above 10000 nM; on human CB2 receptors (setting [2]), 130 nM.

For `CC1(C)CCN(C(=O)n2nnn(-c3cccc(Cl)c3)c2=O)C1` [Example 138, 1-(3-chlorophenyl)-4-(3,3-dimethylpyrrolidine-1-carbonyl)tetrazol-5-one], the EC50 on human CB1 receptors (setting [1]) is above 10000 nM; at human CB2 receptors (setting [2]) it was 5 nM.
